Measured values as given in patent publication US5998180A, “Nitrilase from Rhodoccus rhodochrous for converting acrylonitrile directly to acrylic acid” (priority 1995, dated 1999).
Read-outs that look alike come from different tables or passages of the source.

Columns and labels:
[1] = system: Rhodococcus rhodochrous NCIMB 40757 nitrilase; experiment: Nitrilase kinetics of whole cells (acrylonitrile to ammonium acrylate); assay type: biochemical; details: for Km: 30° C.
Method: A novel nitrilase is characterised by having Km for acrylonitrile below 500 μM. Throughout this specification Km refers to Km measured at pH 7.0. […] In particular we use the conditions of Example 6 below. […] Microbial., 135 3153-3164 and those described for lactate dehydrogenase by Wagner (1990) Tibtech., 8, 263-270 will yield nitrilase having Km values up to 60 or 100, or perhaps 300 μM, and Km values down to. 9.4 and even 3.8 μM.
A novel nitrilase of the invention is characterised by having Ki for ammonium acrylate of at least 100 mM, preferably at least 150 or 200, more preferably at least 250 mM. Throughout this specification Ki refers to Ki measured at pH 7.0. […] Preferably measurement is under the conditions given in Example 7 below. […] It is envisaged that standard techniques and selection procedures, eg mutagenesis, will yield nitrilase having Ki for ammonium acrylate up to 300 mM or even 800 mM or greater.
(§1) The cells of the Rhodococcus rhodochrous strain grown as described in Example 1 were suspended in solutions of 50 mM pH 7 sodium phosphate buffer at 30° C. containing the concentrations of acrylonitrile shown in the table below. Samples were taken over time to determine the acrylonitrile, acrylamide and ammonium acrylate concentrations in the cell suspensions.
as §1, with “1.2 M ammonium acrylate” for “50 mM pH 7 sodium phosphate buffer”

[2] = target: T1, Rhodococcus rhodochrous K22 nitrilase (Rhodococcus rhodochrous, UniProt Q02068); details: read-out: Km (acrylonitrile); reported in J. Bacteriol. 172, 9, 4807-4815; cited from earlier work
T1 sequence (Q02068 1-383): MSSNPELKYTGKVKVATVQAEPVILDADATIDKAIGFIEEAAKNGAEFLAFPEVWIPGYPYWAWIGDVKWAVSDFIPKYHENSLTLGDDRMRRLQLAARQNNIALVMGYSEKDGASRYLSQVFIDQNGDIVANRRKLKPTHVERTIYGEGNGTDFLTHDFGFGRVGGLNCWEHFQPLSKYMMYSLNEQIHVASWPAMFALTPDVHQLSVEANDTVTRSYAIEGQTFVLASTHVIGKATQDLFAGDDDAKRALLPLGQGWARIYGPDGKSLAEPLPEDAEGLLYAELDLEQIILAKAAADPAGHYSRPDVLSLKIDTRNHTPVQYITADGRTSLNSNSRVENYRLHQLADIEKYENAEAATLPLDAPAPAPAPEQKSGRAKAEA

[3] = system: Fusarium oxysporum f.sp. melonis nitrilase; details: read-out: Km (acrylonitrile), cited from earlier work

SMILES	ratio (Ki for ammonium acrylate)/(Km for acrylonitrile) ([1]; initial experiments)	Km ([1]; whole cell form, 50 mM pH 7 sodium phosphate buffer, read-out: Km for acrylonitrile) [µM]	Km ([1]; whole cells in 1.2 M ammonium acrylate, read-out: apparent Km (acrylonitrile) in 1.2 M ammonium acrylate) [µM]	Km [2] [µM]	Km ([3]; Goldlust and Bohak (1989)) [µM]	Km ([3]; reported in Biotech. Appl. Biochem., 1989, 11, 581-601) [µM]
C=CC(=O)O [ammonium acrylate]	greater than 10000	–	–	–	–	–
C=CC#N [acrylonitrile]	–	30.6	145	1140	17000	17000
